Reference: patent US20140031283A1, “ANTICANCER FUSION PROTEIN” (ADAMED SP. Z O.O., priority 2011, published 2014)

Tests used:
Format in all cases: in vivo
[1] = system: human colon cancer HCT116; assay: HCT116 colon cancer xenograft in Crl:CD1-Foxn1^nu 1 mice; details: HCT116, Crl:CD1-Foxn1^nu 1 mice
Protocol: (§1) Antitumor activity of protein preparations was tested in a mouse model of human colon cancer HCT116, human colon cancer Colo205, human colon cancer model SW620, human liver cancer model HepG2, and human lung cancer models NCI-H460 and NCI-H460-Luc2.
The HCT116 (in mice Crl:CD1-Foxn1^nu 1), Colo205, NCI-H460, NCI-H460-Luc2 cells were maintained in RPMI 1640 medium (Hyclone, Logan, Utah, USA) mixed in the ratio of 1:1 with Opti-MEM (Invitrogen, Cat.22600-134) supplemented with 10% fetal calf serum and 2 mM glutamine. On the day of mice grafting, the cells were detached from the support by washing the cells with trypsin (Invitrogen), then the cells were centrifuged at 1300 rpm, 4° C., 8 min., suspended in HBSS buffer (Hanks medium), counted and diluted to the concentration of 25×10^6 cells/ml.
Examination of antitumor activity of proteins of the invention was conducted on 7-9 week-old CD-nude (Crl:CD1-Foxn1^nu 1) or 4-6 week-old Crl:SHO-Prkdc^scidHr^hr mice obtained from Charles River Germany. Mice were kept under specific pathogen-free conditions with free access to food and demineralised water (ad libitum). All experiments on animals were carried in accordance with the guidelines: “Interdisciplinary Principles and Guidelines for the Use of Animals in Research. […]

[2] = system: human colon cancer HCT116; assay: HCT116 colon cancer xenograft in Crl:SHO-Prkdc^scidHr^hr mice; details: 65 mg/kg i.v., 10 daily applications with a two-day break, 24th day
Protocol: as §1
(§2) The HCT116 (in mice Crl:SHO-Prkdc^scidHr^hr) were alternatively maintained in McCoy's medium (Hyclone, Logan, Utah, USA) supplemented with 10% fetal calf serum and 2 mM glutamine. On the day of mice grafting, the cells were detached from the support by washing the cells with trypsin (Invitrogen), then the cells were centrifuged at 1300 rpm, 4° C., 8 min., suspended in HBSS buffer (Hanks medium), counted and diluted to the concentration of 25×10^6 cells/ml. SW620 cells were maintained in DMEM (HyClone, Logan, Utah, USA) supplemented with 10% fetal calf serum and 2 mM glutamine. On the day of mice grafting, the cells were detached from the support by washing the cells with trypsin (Invitrogen), then the cells were centrifuged at 1300 rpm, 4° C., 8 min., suspended in HBSS buffer (Hanks medium), counted and diluted to the concentration of 25×10^6 cells/ml.
(§3) Examination of antitumor activity of proteins of the invention was conducted on 7-9 week-old CD-nude (Crl:CD1-Foxn1^nu 1) or 4-6 week-old Crl:SHO-Prkdc^scidHr^hr mice obtained from Charles River Germany. […]

[3] = system: human colon cancer model SW620; assay: SW620 colon cancer xenograft in Crl:SHO-Prkdc^scidHr^hr mice; details: 30 mg/kg i.v. six times every second day, 31st day
Protocol: as §1, §2, §3

Substance: rhTRAIL114-281: recombinant human soluble TRAIL, amino acids 114-281 of hTRAIL, used as the comparative reference
- tumor growth inhibition (TGI) relative to the control ([1]; 10 mg/kg i.v. daily for ten days, 31th day): 21.8%
- tumor growth inhibition (TGI) relative to the control ([1]; 10 mg/kg i.v., 10 daily applications with a two-day break after the first 5, 27th day): 44%
- tumor growth inhibition (TGI) relative to the control [2]: 38%
- tumor growth inhibition (TGI) relative to the control [3]: −9%
